In patent US9045551B2, “Anti-DLL4/VEGF dual variable domain immunoglobulin and uses thereof” (AbbVie Inc., priority 2012, dated 2015):
Marks after values point to notes of the source that are not given here.

Legend:
[1] = system: PA0123 patient-derived human pancreatic xenograft tumors; experiment: PA0123 patient-derived pancreatic xenograft, combination with gemcitabine; format: in vivo, female NSG mice; details: 100 mg/kg IP, [q3dX4]X2
Procedure: The effect of anti-DLL4-VEGF DVD-Igs in combination with chemotherapy on tumor growth was evaluated on PA0123 patient-derived human pancreatic xenograft tumors in female NSG mice. Briefly, frozen tumor fragments were implanted subcutaneously into the right hind flank. Tumors were allowed to establish for 28 days, at which point tumor volume was determined using electronic caliper measurements using the formula: L×W^2/2. Mice were allocated into treatment groups (n=7 per group) so that each cohort had equivalent mean tumor volume of 193 mm^3 prior to initiation of therapy. Animals were dosed with gemcitabine and/or anti-DLL4-VEGF DVD-Ig, at the dose and schedule in Table 31. Tumor volume was measured twice a week for the duration of the experiment.

[2] = system: HT-29 human colon xenograft tumors; experiment: HT-29 colon xenograft, combination with irinotecan; format: in vivo, female SCID mice; details: 60 mg/kg IP, q3dX4
Procedure: The effect of anti-DLL4-VEGF DVD-Igs in combination with chemotherapy on tumor growth was evaluated on HT-29 human colon xenograft tumors in female SCID mice. Briefly, 2×10^6 cells were inoculated subcutaneously into the right hind flank. Tumors were allowed to establish for 25 days, at which point tumor volume was determined using electronic caliper measurements using the formula: L×W^2/2. Mice were allocated into treatment groups (n=10 per group) so that each cohort had equivalent mean tumor volume of 209 mm^3 prior to initiation of therapy. Animals were dosed with irinotecan and/or anti-DLL4-VEGF DVD-Ig, at the dose and schedule in Table 29. Tumor volume was measured twice a week for the duration of the experiment.

[3] = system: SW-48 human colon xenograft tumors; experiment: SW-48 colon xenograft, combination with irinotecan; format: in vivo, female SCID mice; details: 60 mg/kg IP, q3dX4
Procedure: (§1) The effect of anti-DLL4-VEGF DVD-Igs in combination with chemotherapy on tumor growth was evaluated on SW-48 human colon xenograft tumors in female SCID mice. Briefly, 5×10^6 cells were inoculated subcutaneously into the right hind flank. Tumors were allowed to establish for 13 days, at which point tumor volume was determined using electronic caliper measurements using the formula: L×W^2/2. Mice were allocated into treatment groups (n=10 per group) so that each cohort had equivalent mean tumor volume of 211 mm^3 prior to initiation of therapy. Animals were dosed with irinotecan, anti-VEGF mAb, and/or anti-DLL4-VEGF DVD-Ig at the dose and schedule in Table 27. Tumor volume was measured twice a week for the duration of the experiment.

[4] = system: SUM149PT human breast xenograft tumors; experiment: SUM149PT breast xenograft, combination with paclitaxel (Table 33); format: in vivo, female SCID mice; details: 25 mg/kg IP, [q4dX3]X4
Procedure: (§2) The effect of anti-DLL4-VEGF DVD-Igs in combination with chemotherapy on tumor growth was evaluated on SUM149PT human breast xenograft tumors in female SCID mice. Briefly, 1×10^6 cells were inoculated subcutaneously into the right hind flank. Tumors were allowed to establish for 28 days, at which point tumor volume was determined using electronic caliper measurements using the formula: L×W^2/2. Mice were allocated into treatment groups (n=9 per group) so that each cohort had equivalent mean tumor volume of 183 mm^3 prior to initiation of therapy. Animals were dosed with paclitaxel and/or anti-DLL4-VEGF DVD-Ig, at the dose and schedule in Table 33. Tumor volume was measured twice a week for the duration of the experiment.

[5] = system: MDA-MB-231-luc human breast xenograft tumors; experiment: MDA-MB-231-luc breast xenograft, combination with paclitaxel; format: in vivo, female SCID mice; details: 25 mg/kg IP, q4dX3
Procedure: The effect of anti-DLL4-VEGF DVD-Igs in combination with chemotherapy on tumor growth was evaluated on MDA-MB-231-luc human breast xenograft tumors in female SCID mice. Briefly, 2×10^6 cells were implanted in the mammary fat pad. Tumors were allowed to establish for 13 days, at which point tumor volume was determined using electronic caliper measurements using the formula: L×W^2/2. Mice were allocated into treatment groups (n=10 per group) so that each cohort had equivalent mean tumor volume of 150 mm^3 prior to initiation of therapy. Animals were dosed with paclitaxel and/or anti-DLL4-VEGF DVD-Ig, at the dose and schedule in Table 32. Tumor volume was measured twice a week for the duration of the experiment. Additionally, bioluminescent images were acquired to monitor and track spontaneous metastasis of cancer cell to the lung and/or lymph nodes Results are shown in Table 32.

[6] = system: SUM149PT human breast xenograft tumors; experiment: SUM149PT breast xenograft, combination with paclitaxel and anti-VEGF mAb (Table 34); format: in vivo, female SCID mice; details: 25 mg/kg IP, [q4dX3]X4; day 18 post size match
Procedure: as §2, with “25” for “28”, “(n=10” for “(n=9”, “228” for “183”, “paclitaxel, anti-VEGF mAb” for “paclitaxel”, “34.” for “33.”

[7] = system: U87-MG human glioblastoma xenograft tumors; experiment: U87-MG glioblastoma xenograft, combination with temozolomide (Example 11); format: in vivo, female SCID mice; details: 5 mg/kg IP, qdX1
Procedure: as §1, with “U87-MG” for “SW-48”, “glioblastoma” for “colon”, “3×10^6” for “5×10^6”, “207” for “211”, “temozolomide,” for “irinotecan,”, “30.” for “27.”

[8] = system: U87-MG human glioblastoma xenograft tumors; experiment: U87-MG glioblastoma xenograft, combination with Temozolomide (Example 6); format: in vivo, female SCID mice; details: 5 mg/kg IP
Procedure: The effect of anti-DLL4/anti-VEGF DVDs in combination with chemotherapy on tumor growth was evaluated on U87-MG human glioblastoma xenograft tumors in female SCID mice. Briefly, 3×10^6 cells were inoculated subcutaneously into the right hind flank. Tumors were allowed to establish for 22 days, at which point tumor volume was determined using electronic caliper measurements using the formula: L×W^2/2. Mice were allocated into treatment groups (n=10 per group) so that each cohort had equivalent mean tumor volume of 207 mm^3 prior to initiation of therapy. Animals were dosed intraperitoneally with a single dose of Temozolomide® and/or four weekly doses of anti-DLL4/anti-VEGF DVD, with tumor volume measured twice a week for the duration of the experiment.

[9] = biological target: T1, human DLL4529 (Homo sapiens, UniProt Q9NR61); experiment: BIACORE surface plasmon resonance binding kinetics, human DLL4; details: BIAcore human DLL4529, 25° C.
T1 construct: a purified recombinant DLL4 extracellular domain (ECD)
Procedure: A BIACORE assay (Biacore, Inc, Piscataway, N.J.) was used to evaluate the binding of DVDs to a purified recombinant DLL4 extracellular domain (ECD) or to VEGF165, as determined by surface plasmon resonance-based measurements made on a Biacore 2000, Biacore 3000 or Biacore T100 (GE Healthcare, Piscataway, N.J.) at 25° C. For DLL4 binding kinetic measurements the assay buffer was HBS-EPB: 10 mM Hepes, pH7.5, 150 mM NaCl, 3 mM EDTA, 0.005% Tween 20, 0.1 mg/ml BSA (Sigma A7906). For VEGF binding kinetic measurements the assay buffer was HBS-EP+(3N01B): 10 mM Hepes, pH7.5, 300 mM NaCl, 3 mM EDTA, 0.05% Tween 20, 0.1 mg/ml BSA (Sigma A7906). For example, approximately 9000 RU of goat anti-human Fc specific polyclonal antibody (Thermo Fisher Scientific Inc., Rockford, Ill.) diluted in 10 mM sodium acetate (pH 4.5) is directly immobilized across a CM5 research grade biosensor chip using a standard amine coupling kit according to manufacturer's instructions and procedures at 25 ug/ml. […] The equilibrium dissociation constant KD (M) of the reaction between antibodies and the target antigen is then calculated from the kinetic rate constants by the following formula: KD=Koff/Kon. Binding is recorded as a function of time and kinetic rate constants are calculated. In this assay, on-rates as fast as 10^6 M^−1s^−1 and off-rates as slow as 10^−6 s^−1 can be measured.

Nc1ccn([C@@H]2O[C@H](CO)[C@@H](O)C2(F)F)c(=O)n1 [gemcitabine, reference compound]
% TGI (Percent tumor growth inhibition) ([1]; day 38 post size match): 48** %
% TGD (Percent tumor growth delay) ([1]; endpoint of 1000 mm^3): 43** %

CCc1c2c(nc3ccc(OC(=O)N4CCC(N5CCCCC5)CC4)cc13)-c1cc3c(c(=O)n1C2)COC(=O)[C@]3(O)CC [irinotecan, reference compound]
% TGI (Percent tumor growth inhibition) ([2]; day 20 post size match): 47* %
% TGD (Percent tumor growth delay) ([2]; endpoint of 1000 mm^3): 60* %
% TGI (Percent tumor growth inhibition) ([3]; day 18 post size match): 77*** %
% TGD (Percent tumor growth delay) ([3]; endpoint of 1000 mm^3): 106*** %

CC(=O)O[C@H]1C(=O)[C@@]2(C)[C@H]([C@H](OC(=O)c3ccccc3)[C@]3(O)C[C@H](OC(=O)[C@H](O)[C@@H](NC(=O)c4ccccc4)c4ccccc4)C(C)=C1C3(C)C)[C@]1(OC(C)=O)CO[C@@H]1C[C@@H]2O [paclitaxel, reference compound]
% TGI (Percent tumor growth inhibition) ([4]; day 22 post size match): 60*** %
% TGD (Percent tumor growth delay) ([4]; endpoint of 1000 mm^3): 173*** %
% met incidence (Percent of animals with detectable signal in the lung and/or lymph nodes) ([5]; bioluminescent imaging, day 22 post size match, treatment control group 100%): 40* %
% TGI (Percent tumor growth inhibition) ([5]; day 15 post size match): 78*** %
% TGD (Percent tumor growth delay) ([5]; endpoint of 1000 mm^3): 106*** %
% TGI (Percent tumor growth inhibition) [6]: 50* %

Cn1nnc2c(C(N)=O)ncn2c1=O [Temozolomide, reference compound]
% TGI (Percent tumor growth inhibition) ([7]; day 19 post size match): 65*** %
% TGD (Percent tumor growth delay) ([7]; endpoint of 1000 mm^3): 45*** %
% TGI (Percent tumor growth inhibition) ([8]; qdX1, day 19 post size match): 65*** %
% TGD (Percent tumor growth delay) ([8]; qdX1, endpoint of 1000 mm^3): 45*** %

B1: h1A11.1: humanized anti-DLL4 mAb, parent antibody; VH SEQ ID NO: 39, VL SEQ ID NO: 40 (antibody, V domains shown)
VH: EVQLVESGGGLVQPGGSLRLSCAASGFTFSNFPMAWVRQAPGKGLEWVATISSSDGTTYYRDSVKGRFTISRDNAKNSLYLQMNSLRAEDTAVYYCARGYYNSPFAYWGQGTLVTVSS
VL: DIQMTQSPSSLSASVGDRVTITCRASEDIYSNLAWYQQKPGKAPKLLIYDTNNLADGVPSRFSGSGSGTDFTLTISSLQPEDFATYYCQQYNNYPPTFGQGTKLEIKR
Koff [9]: 0.00193 s⁻¹
Kon [9]: 160000 M⁻¹ s⁻¹
